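96-well plates; 48 h exposure; 5 concentrations. Endpoints by linear interpolation between flanking doses. Not reached: highest tested concentration assigned. GI50 = concentration required for 50% inhibition of growth.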 The source made the active and inactive calls. No stated cut-off is given here; in the data, active = GI50 up to about 1.1 µM and inactive = higher.
Tests used:
Assay in all cases: growth of human tumour cells (NCI), 48 h
IGROV-1 = tested on: IGROV-1
EKVX = tested on: EKVX
MDA-N = tested on: MDA-N
UACC-257 = tested on: UACC-257
Hs-578T = tested on: Hs-578T
OVCAR-3 = tested on: OVCAR-3
SW-620 = tested on: SW-620
CCRF-CEM = tested on: CCRF-CEM
SNB-19 = tested on: SNB-19
NCI-H226 = tested on: NCI-H226
PC-3 = tested on: PC-3
RXF 393 = tested on: RXF 393
T47D = tested on: T47D
HOP-62 = tested on: HOP-62
SF-295 = tested on: SF-295
MOLT-4 = tested on: MOLT-4
HCT-116 = tested on: HCT-116
SK-MEL-5 = tested on: SK-MEL-5
SN12C = tested on: SN12C
BT-549 = tested on: BT-549
786-0 = tested on: 786-0
SK-MEL-28 = tested on: SK-MEL-28
NCI-H522 = tested on: NCI-H522
COLO 205 = tested on: COLO 205
SK-MEL-2 = tested on: SK-MEL-2
A549 = tested on: A549
RPMI-8226 = tested on: RPMI-8226
MCF7 = tested on: MCF7
HT-29 = tested on: HT-29
Malme-3M = tested on: Malme-3M
TK-10 = tested on: TK-10
SF-268 = tested on: SF-268
MDA-MB-435 = tested on: MDA-MB-435
OVCAR-4 = tested on: OVCAR-4
HCC 2998 = tested on: HCC 2998
OVCAR-8 = tested on: OVCAR-8
LOX IMVI = tested on: LOX IMVI
K562 = tested on: K562
SR = tested on: SR
SNB-75 = tested on: SNB-75
KM12 = tested on: KM12
OVCAR-5 = tested on: OVCAR-5
SF-539 = tested on: SF-539
ACHN = tested on: ACHN
HL-60 = tested on: HL-60
M14 = tested on: M14
DU-145 = tested on: DU-145
SK-OV-3 = tested on: SK-OV-3
NCI-H460 = tested on: NCI-H460
HCT-15 = tested on: HCT-15
UO-31 = tested on: UO-31
UACC-62 = tested on: UACC-62
NCI/ADR-RES = tested on: NCI/ADR-RES
MDA-MB-231 = tested on: MDA-MB-231
U-251 = tested on: U-251
A498 = tested on: A498
NCI-H23 = tested on: NCI-H23
CAKI-1 = tested on: CAKI-1

SMILES: O=C1c2ccccc2CC12Cc1ccc3c(c1C2=O)CCCC3 (centres undefined)
- GI50 (IGROV-1): 4.71 µM (inactive)
- GI50 (EKVX): > 100 µM (inactive)
- GI50 (MDA-N): 6.35 µM (inactive)
- GI50 (UACC-257): > 100 µM (inactive)
- GI50 (Hs-578T): 0.491 µM (active)
- GI50 (OVCAR-3): 12.6 µM (inactive)
- GI50 (SW-620): 6.32 µM (inactive)
- GI50 (CCRF-CEM): 49 µM (inactive)
- GI50 (SNB-19): 20.7 µM (inactive)
- GI50 (NCI-H226): 24 µM (inactive)
- GI50 (PC-3): 66.7 µM (inactive)
- GI50 (RXF 393): 4.13 µM (inactive)
- GI50 (T47D): 1.39 µM (inactive)
- GI50 (HOP-62): 7.74 µM (inactive)
- GI50 (SF-295): 5.96 µM (inactive)
- GI50 (MOLT-4): 4.35 µM (inactive)
- GI50 (HCT-116): 3.57 µM (inactive)
- GI50 (SK-MEL-5): 6.19 µM (inactive)
- GI50 (SN12C): 14.1 µM (inactive)
- GI50 (BT-549): > 100 µM (inactive)
- GI50 (786-0): 7.85 µM (inactive)
- GI50 (SK-MEL-28): 47.2 µM (inactive)
- GI50 (NCI-H522): 5.21 µM (inactive)
- GI50 (COLO 205): 13 µM (inactive)
- GI50 (SK-MEL-2): > 100 µM (inactive)
- GI50 (A549): 8.05 µM (inactive)
- GI50 (RPMI-8226): 18.2 µM (inactive)
- GI50 (MCF7): > 100 µM (inactive)
- GI50 (HT-29): 6.49 µM (inactive)
- GI50 (Malme-3M): 82.2 µM (inactive)
- GI50 (TK-10): > 100 µM (inactive)
- GI50 (SF-268): > 100 µM (inactive)
- GI50 (MDA-MB-435): 21.7 µM (inactive)
- GI50 (OVCAR-4): 3.29 µM (inactive)
- GI50 (HCC 2998): > 100 µM (inactive)
- GI50 (OVCAR-8): 26 µM (inactive)
- GI50 (LOX IMVI): 19.9 µM (inactive)
- GI50 (K562): 21.6 µM (inactive)
- GI50 (SR): 2.87 µM (inactive)
- GI50 (SNB-75): 6.52 µM (inactive)
- GI50 (KM12): 41.4 µM (inactive)
- GI50 (OVCAR-5): > 100 µM (inactive)
- GI50 (SF-539): 4.89 µM (inactive)
- GI50 (ACHN): 7.83 µM (inactive)
- GI50 (HL-60): 16.8 µM (inactive)
- GI50 (M14): 8.61 µM (inactive)
- GI50 (DU-145): > 100 µM (inactive)
- GI50 (SK-OV-3): > 100 µM (inactive)
- GI50 (NCI-H460): 3.91 µM (inactive)
- GI50 (HCT-15): 5.13 µM
- GI50 (UO-31): 9.27 µM (inactive)
- GI50 (UACC-62): 8.2 µM (inactive)
- GI50 (NCI/ADR-RES): 7.06 µM (inactive)
- GI50 (MDA-MB-231): 0.948 µM (active)
- GI50 (U-251): 35.2 µM (inactive)
- GI50 (A498): 23.7 µM (inactive)

SMILES: CCN(CC)C(=S)N/N=C/c1cc([N+](=O)[O-])ccc1O
- GI50 (IGROV-1): 3.65 µM (inactive)
- GI50 (EKVX): 4.56 µM (inactive)
- GI50 (MDA-N): 5.43 µM (inactive)
- GI50 (UACC-257): 8.53 µM (inactive)
- GI50 (Hs-578T): 53.2 µM (inactive)
- GI50 (OVCAR-3): 0.0528 µM (active)
- GI50 (SW-620): 6.35 µM (inactive)
- GI50 (CCRF-CEM): 1.26 µM (inactive)
- GI50 (SNB-19): 9.16 µM (inactive)
- GI50 (NCI-H226): 2.31 µM (inactive)
- GI50 (PC-3): 4.92 µM (inactive)
- GI50 (RXF 393): 6.97 µM (inactive)
- GI50 (T47D): 5.13 µM (inactive)
- GI50 (HOP-62): 7.4 µM (inactive)
- GI50 (SF-295): 4.56 µM (inactive)
- GI50 (MOLT-4): 1.8 µM (inactive)
- GI50 (HCT-116): 2.75 µM (inactive)
- GI50 (SK-MEL-5): 2.02 µM (inactive)
- GI50 (SN12C): 4.88 µM (inactive)
- GI50 (BT-549): 4.54 µM (inactive)
- GI50 (786-0): 2.99 µM (inactive)
- GI50 (SK-MEL-28): 5.11 µM (inactive)
- GI50 (NCI-H522): 5.07 µM (inactive)
- GI50 (COLO 205): 3.4 µM (inactive)
- GI50 (SK-MEL-2): 16.4 µM (inactive)
- GI50 (A549): 12.8 µM (inactive)
- GI50 (MCF7): 2.22 µM (inactive)
- GI50 (HT-29): 5.45 µM (inactive)
- GI50 (Malme-3M): 6.68 µM (inactive)
- GI50 (TK-10): 8.87 µM (inactive)
- GI50 (NCI-H23): 6.59 µM (inactive)
- GI50 (SF-268): 3.66 µM (inactive)
- GI50 (MDA-MB-435): 5.48 µM (inactive)
- GI50 (OVCAR-4): 3.65 µM (inactive)
- GI50 (HCC 2998): 8.53 µM (inactive)
- GI50 (OVCAR-8): 3.56 µM (inactive)
- GI50 (LOX IMVI): 3.01 µM (inactive)
- GI50 (K562): 3.18 µM (inactive)
- GI50 (SR): 1.74 µM (inactive)
- GI50 (SNB-75): 9.27 µM (inactive)
- GI50 (KM12): 4.07 µM (inactive)
- GI50 (OVCAR-5): 24.3 µM (inactive)
- GI50 (SF-539): 6.15 µM (inactive)
- GI50 (ACHN): 3.36 µM (inactive)
- GI50 (HL-60): 1.69 µM (inactive)
- GI50 (M14): 4.17 µM (inactive)
- GI50 (DU-145): 4.56 µM (inactive)
- GI50 (SK-OV-3): 3.95 µM (inactive)
- GI50 (NCI-H460): 3 µM (inactive)
- GI50 (HCT-15): 3.62 µM
- GI50 (UO-31): 3.12 µM (inactive)
- GI50 (UACC-62): 3.27 µM (inactive)
- GI50 (NCI/ADR-RES): 3.01 µM (inactive)
- GI50 (MDA-MB-231): 8.18 µM (inactive)
- GI50 (U-251): 4.24 µM (inactive)
- GI50 (A498): 2.25 µM (inactive)

SMILES: N#Cc1ncn(CCO)c1N
- GI50 (IGROV-1): > 100 µM (inactive)
- GI50 (EKVX): > 100 µM (inactive)
- GI50 (MDA-N): > 100 µM (inactive)
- GI50 (UACC-257): > 100 µM (inactive)
- GI50 (Hs-578T): > 100 µM (inactive)
- GI50 (OVCAR-3): > 100 µM (inactive)
- GI50 (SW-620): > 100 µM (inactive)
- GI50 (CCRF-CEM): > 100 µM (inactive)
- GI50 (SNB-19): > 100 µM (inactive)
- GI50 (NCI-H226): > 100 µM (inactive)
- GI50 (PC-3): > 100 µM (inactive)
- GI50 (T47D): > 100 µM (inactive)
- GI50 (HOP-62): > 100 µM (inactive)
- GI50 (SF-295): > 100 µM (inactive)
- GI50 (MOLT-4): > 100 µM (inactive)
- GI50 (HCT-116): > 100 µM (inactive)
- GI50 (SK-MEL-5): > 100 µM (inactive)
- GI50 (SN12C): > 100 µM (inactive)
- GI50 (BT-549): > 100 µM (inactive)
- GI50 (786-0): > 100 µM (inactive)
- GI50 (SK-MEL-28): > 100 µM (inactive)
- GI50 (NCI-H522): > 100 µM (inactive)
- GI50 (COLO 205): > 100 µM (inactive)
- GI50 (SK-MEL-2): > 100 µM (inactive)
- GI50 (A549): > 100 µM (inactive)
- GI50 (RPMI-8226): > 100 µM (inactive)
- GI50 (MCF7): > 100 µM (inactive)
- GI50 (HT-29): > 100 µM (inactive)
- GI50 (Malme-3M): > 100 µM (inactive)
- GI50 (TK-10): > 100 µM (inactive)
- GI50 (NCI-H23): > 100 µM (inactive)
- GI50 (SF-268): > 100 µM (inactive)
- GI50 (MDA-MB-435): > 100 µM (inactive)
- GI50 (OVCAR-4): > 100 µM (inactive)
- GI50 (HCC 2998): > 100 µM (inactive)
- GI50 (OVCAR-8): > 100 µM (inactive)
- GI50 (LOX IMVI): > 100 µM (inactive)
- GI50 (K562): > 100 µM (inactive)
- GI50 (SR): > 100 µM (inactive)
- GI50 (SNB-75): > 100 µM (inactive)
- GI50 (CAKI-1): > 100 µM (inactive)
- GI50 (KM12): > 100 µM (inactive)
- GI50 (OVCAR-5): > 100 µM (inactive)
- GI50 (SF-539): > 100 µM (inactive)
- GI50 (ACHN): > 100 µM (inactive)
- GI50 (HL-60): > 100 µM (inactive)
- GI50 (M14): > 100 µM (inactive)
- GI50 (DU-145): > 100 µM (inactive)
- GI50 (SK-OV-3): > 100 µM (inactive)
- GI50 (NCI-H460): > 100 µM (inactive)
- GI50 (HCT-15): > 100 µM
- GI50 (UO-31): > 100 µM (inactive)
- GI50 (UACC-62): > 100 µM (inactive)
- GI50 (NCI/ADR-RES): > 100 µM (inactive)
- GI50 (MDA-MB-231): > 100 µM (inactive)
- GI50 (U-251): > 100 µM (inactive)
- GI50 (A498): > 100 µM (inactive)

— ChEMBL document CHEMBL1201862, “PubChem BioAssay data set” (2004)
